The values that follow come from ChEMBL document CHEMBL1133382, “Probing the extended binding determinants of oligosaccharyl transferase with synthetic inhibitors of asparagine-linked glycosylation” (Bioorg Med Chem Lett, 2000).

Starred links: 1 amine or outer side, 2 acyl side, 3 side chain; linkers in the order of their positions; H or OH if unused. Positions of bridges follow the written chain, without caps; N, C: chain ends. Non-standard residues stand in square brackets, D forms with d. Residues, ends and D or L forms follow the SMILES beside them. *: point of attachment. Phe(4-NO2) = N[C@@H](Cc1ccc([N+](=O)[O-])cc1)C(=O)O; X1 = O=C(CCCCC[*:2])[*:1]; Dab = NCC[C@H](N)C(=O)O; X3 = c1ccc2cc(*)ccc2c1

For the assay, the target named is T1, Dolichyl-diphosphooligosaccharide--protein glycosyltransferase 48 kDa subunit (UniProt P39656).
T1 sequence (P39656 whole entry): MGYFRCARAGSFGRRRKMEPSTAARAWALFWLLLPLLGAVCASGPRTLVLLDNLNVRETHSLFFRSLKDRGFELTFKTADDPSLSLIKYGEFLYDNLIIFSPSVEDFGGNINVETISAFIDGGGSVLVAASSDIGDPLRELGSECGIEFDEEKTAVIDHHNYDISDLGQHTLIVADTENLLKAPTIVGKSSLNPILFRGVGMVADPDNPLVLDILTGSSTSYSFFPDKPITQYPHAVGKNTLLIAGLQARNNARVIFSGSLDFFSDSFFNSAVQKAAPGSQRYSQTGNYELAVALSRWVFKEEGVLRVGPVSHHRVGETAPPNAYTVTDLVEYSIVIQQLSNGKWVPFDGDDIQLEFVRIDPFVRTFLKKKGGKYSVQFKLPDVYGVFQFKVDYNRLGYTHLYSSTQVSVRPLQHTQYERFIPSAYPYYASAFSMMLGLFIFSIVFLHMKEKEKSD
In words: Inhibition of asparagine-linked glycosylation by oligosaccharyl transferase. More on the design: species or system Saccharomyces cerevisiae.
In turn, `CC(C)[C@H](NC(=O)[C@@H](NC(=O)[C@@H]1CSCCCCCC(=O)N[C@@H](CCN)C(=O)N1)[C@@H](C)O)C(=O)N[C@H](C(N)=O)[C@@H](C)O` displayed an inhibition constant Ki of 82 nM. This lies in the double-digit nanomolar range.

`CC(C)[C@H](NC(=O)[C@@H](NC(=O)[C@@H]1CSCCCCCC(=O)N[C@@H](CCN)C(=O)N1)[C@@H](C)O)C(=O)N[C@H](C(=O)NCCCCc1ccccc1)[C@@H](C)O` had a Ki of 50 nM.

Turning to `CC(C)[C@H](NC(=O)[C@@H](NC(=O)[C@@H]1CSCCCCCC(=O)N[C@@H](CCN)C(=O)N1)[C@@H](C)O)C(=O)N[C@H](C(=O)NCCc1ccccc1)[C@@H](C)O`, affinity was put at a Ki of 44 nM.

`CC(C)[C@H](NC(=O)[C@@H](NC(=O)CNC(=O)[C@H](CCCNCc1ccccc1)NCc1ccccc1)[C@@H](C)O)C(=O)N[C@H](C(N)=O)[C@H](C)O` registered a Ki above 5000 nM.

`CCCCCCCCCCNCC[C@@H]1NC(=O)CCCCCSC[C@@H](C(=O)N[C@H](C(=O)N[C@H](C(=O)N[C@H](C(=O)N[C@@H](Cc2ccc([N+](=O)[O-])cc2)C(N)=O)[C@@H](C)O)C(C)C)[C@@H](C)O)NC1=O` came in with an inhibition constant (Ki) of 61 nM. That is a double-digit nanomolar value.

`CC(C)[C@H](NC(=O)[C@@H](NC(=O)[C@@H]1CSCCCCCC(=O)N[C@@H](CCNc2ccc3ccccc3c2)C(=O)N1)[C@@H](C)O)C(=O)N[C@H](C(=O)NCCc1ccc([N+](=O)[O-])cc1)[C@@H](C)O` came in with a Ki of 10 nM.

In the case of `CC(C)[C@H](NC(=O)[C@@H](NC(=O)[C@@H]1CSCCCCCC(=O)N[C@@H](CCN)C(=O)N1)[C@@H](C)O)C(=O)N[C@H](C(=O)NCCc1ccc([N+](=O)[O-])cc1)[C@@H](C)O`, the Ki came to 20 nM.

Regarding `COc1ccc(CNCCC[C@H](NCc2ccccc2)C(=O)NCC(=O)N[C@H](C(=O)N[C@H](C(=O)N[C@H](C(N)=O)[C@@H](C)O)C(C)C)[C@@H](C)O)cc1` (HELM PEPTIDE1{[COc1ccc(CNCCC[C@H](NCc2ccccc2)C(=O)[*:2])cc1].G.T.V.T.[am]}$$$$V2.0), affinity was put at a Ki of 305 nM.

Turning to `[H][C@@](NC(=O)[C@@H]1CSCCCCCC(=O)N[C@@H](CCN)C(=O)N1)(C(=O)N[C@H](C(=O)N[C@H](C(=O)N[C@@H](Cc1ccc([N+](=O)[O-])cc1)C(N)=O)[C@@H](C)O)C(C)C)[C@@H](C)O` (HELM PEPTIDE1{[Dab].C.T.V.T.[O=C([C@H](Cc1ccc([N+](=O)[O-])cc1)N[*:1])[*:2]].[am]}|CHEM1{[O=C(CCCCC[*:2])[*:1]]}$PEPTIDE1,CHEM1,1:R1-1:R1|PEPTIDE1,CHEM1,2:R3-1:R2$$$V2.0), the inhibition constant (Ki) was found to be 37 nM.

`CC(C)[C@H](NC(=O)[C@@H](NC(=O)CNC(=O)[C@H](CCCNCc1ccc([N+](=O)[O-])cc1)NCc1ccccc1)[C@@H](C)O)C(=O)N[C@H](C(N)=O)[C@@H](C)O` (HELM PEPTIDE1{[O=C([C@H](CCCNCc1ccc([N+](=O)[O-])cc1)NCc1ccccc1)[*:2]].G.T.V.T.[am]}$$$$V2.0) registered a Ki of 154 nM.

Compound `CC(C)[C@H](NC(=O)[C@@H](NC(=O)[C@@H]1CSCCCCCC(=O)N[C@@H](CCNc2ccc3ccccc3c2)C(=O)N1)[C@@H](C)O)C(=O)N[C@H](C(=O)N[C@@H](Cc1ccc([N+](=O)[O-])cc1)C(N)=O)[C@@H](C)O` ([Dab](X3)CTVT[Phe(4-NO2)]-NH2; linker N-2 via X1) came in with a Ki of 40 nM.

One may read the Ki as the equilibrium dissociation constant of an inhibitor or competing ligand from its target. Lower therefore signals tighter binding.
